The test system of the assay is P388 leukemia ip, CD2F1 mice, survival T/C. In words: NCI In Vivo Anticancer Drug Screen. Data for tumor model P388 Leukemia (intraperitoneal) in CD2F1 (CDF1) mice. The settings on record: endpoint: median survival time, higher = longer survival. The method, boiled down: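 Mice carrying the transplanted tumor received test compound or vehicle. Survival was recorded in each group, and the value is the treated-group measurement divided by that of the vehicle-treated control group.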

[1] abbreviates: dose: 60.0 mg/kg/injection, schedule: Q01DX005 (ip), vehicle: saline with Tween-80.
[2] abbreviates: dose: 120.0 mg/kg/injection, schedule: Q01DX005 (ip), vehicle: saline with Tween-80.
[3] abbreviates: dose: 240.0 mg/kg/injection, schedule: Q01DX005 (ip), vehicle: saline with Tween-80.
Setting [4] is: dose: 100.0 mg/kg/injection, schedule: Q04DX003 (ip), vehicle: saline with Tween-80.
The mark [5] stands for this setting: dose: 200.0 mg/kg/injection, schedule: Q04DX003 (ip), vehicle: saline with Tween-80.
[6] abbreviates: dose: 25.0 mg/kg/injection, schedule: Q01DX009 (ip), vehicle: saline with Tween-80.
Where [7] appears, read: dose: 50.0 mg/kg/injection, schedule: Q01DX009 (ip), vehicle: saline with Tween-80.
Setting [8] is: dose: 100.0 mg/kg/injection, schedule: Q01DX009 (ip), vehicle: saline with Tween-80.
The mark [9] stands for this setting: dose: 200.0 mg/kg/injection, schedule: Q01DX009 (ip), vehicle: saline with Tween-80.
Setting [10] is: dose: 50.0 mg/kg/injection, schedule: Q01DX005 (ip), vehicle: saline with Tween-80.
Setting [11] is: dose: 100.0 mg/kg/injection, schedule: Q01DX005 (ip), vehicle: saline with Tween-80.
The mark [12] stands for this setting: dose: 200.0 mg/kg/injection, schedule: Q01DX005 (ip), vehicle: saline with Tween-80.
[13] abbreviates: dose: 12.5 mg/kg/injection, schedule: Q01DX009 (ip), vehicle: Klucel (hydroxypropylcellulose) (HPC).
The mark [14] stands for this setting: dose: 100.0 mg/kg/injection, schedule: Q01DX009 (ip), vehicle: Klucel (hydroxypropylcellulose) (HPC).
[15] abbreviates: dose: 200.0 mg/kg/injection, schedule: Q04DX002 (ip), vehicle: saline with Tween-80.
Setting [16] is: dose: 400.0 mg/kg/injection, schedule: Q04DX002 (ip), vehicle: saline with Tween-80.
[17] abbreviates: dose: 50.0 mg/kg/injection, schedule: Q01DX009 (ip), vehicle: Klucel (hydroxypropylcellulose) (HPC).

“And” between values parts separate entries of the source, which are not always exact repeats. Equal entries are not always repeated. Inconclusive results and toxic doses are left out.

As for `O=NN(C(=O)NC1CCC(O)CC1)C1CCC(O)CC1` (stereo unspecified), the T/C is 102 % of control (dose: 25.0 mg/kg/injection, schedule: Q01DX001 (ip), vehicle: distilled water + Tween-80); 99 % of control (dose: 50.0 mg/kg/injection, schedule: Q01DX001 (ip), vehicle: distilled water + Tween-80); 106 % of control (dose: 100.0 mg/kg/injection, schedule: Q01DX001 (ip), vehicle: distilled water + Tween-80); 101 % of control (dose: 200.0 mg/kg/injection, schedule: Q01DX001 (ip), vehicle: distilled water + Tween-80).

For `COC(OC)C(=O)OC(C)(C)C`, the T/C is, setting by setting: under setting [1], 103 % of control; under setting [2], 100 % of control; under setting [3], 101 % of control.

For the compound `CCOC(=O)/C=C/c1nc(OCC)c(C)c(C(=O)OCC)n1`, the T/C is 95 % of control (dose: 12.5 mg/kg/injection, schedule: Q01DX009 (ip), vehicle: other); 102 % of control (dose: 25.0 mg/kg/injection, schedule: Q01DX009 (ip), vehicle: other); 98 % of control (dose: 50.0 mg/kg/injection, schedule: Q01DX009 (ip), vehicle: other); 103 % of control (dose: 100.0 mg/kg/injection, schedule: Q01DX009 (ip), vehicle: other); 90 % of control (dose: 200.0 mg/kg/injection, schedule: Q01DX009 (ip), vehicle: other).

In the case of `CC(CC=O)CCCC(C)(C)O` (stereo unspecified), the T/C under setting [4] was 100 % of control; the T/C under setting [5] was 100 % of control; the T/C (dose: 400.0 mg/kg/injection, schedule: Q04DX003 (ip), vehicle: saline with Tween-80) was 100 % of control.

Consider `COC(=O)C1CC(=O)N(C)c2sc(C)c(C)c2C1=O` (stereo unspecified), for which the T/C under setting [6] was 103 % of control; the T/C under setting [7] is 93 % of control; the T/C under setting [8] is 94 % of control; the T/C under setting [4] was 97 % of control; the T/C under setting [9] was 94 % of control; the T/C under setting [5] was 93 % of control.

On to `CCON1C(=O)C(C)c2ccccc21` (stereo unspecified), for which the T/C is, setting by setting: under setting [1], 98 % of control; under setting [2], 102 % of control; under setting [3], 102 % of control.

For the compound `CCOC(=O)CSc1nnc(N)s1`, the T/C runs as follows: under setting [7], 121 % of control; under setting [8], 116 % of control; under setting [9], 98 % of control.

As to `CCC(C)C(NC(=O)OC(C)(C)c1ccc(-c2ccccc2)cc1)C(=O)O` (stereo unspecified), the T/C is 99 % of control under setting [10], 102 % of control under setting [11] and 95 % of control under setting [12].

With `Fc1ccc(NC(=S)SCc2ccc(Cl)c(Cl)c2)cc1F`, the T/C is, setting by setting: under setting [13], 124 % of control; under setting [14], 116 % of control and 96 % of control.

For the compound `O=C(NC(=S)c1cccc2ccccc12)Nc1ccc(Cl)c(Cl)c1`, the T/C runs as follows: (dose: 12.5 mg/kg/injection, schedule: Q01DX009 (ip), vehicle: saline with Tween-80) 89 % of control; under setting [6], 87 % of control; under setting [7], 103 % of control.

`COc1ccccc1N=N/C(=N\Nc1ccccc1OC)C(=O)Nc1ccccc1`: the T/C is 89 % of control (dose: 6.25 mg/kg/injection, schedule: Q01DX009 (ip), vehicle: saline); 91 % of control (dose: 12.5 mg/kg/injection, schedule: Q01DX009 (ip), vehicle: saline); 90 % of control (dose: 25.0 mg/kg/injection, schedule: Q01DX009 (ip), vehicle: saline); 93 % of control (dose: 100.0 mg/kg/injection, schedule: Q01DX009 (ip), vehicle: saline).

As for `CC(C)(C)NCC(O)COc1cccc2c1CCC(=O)N2` (stereo unspecified), the T/C under setting [7] is 100 % of control, the T/C under setting [8] was 102 % of control and the T/C under setting [9] was 97 % of control.

Take `CCOC(C#CC(C)=O)OCC`: the T/C by setting is: (dose: 60.0 mg/kg/injection, schedule: Q01DX005 (ip), vehicle: saline) 106 % of control; (dose: 120.0 mg/kg/injection, schedule: Q01DX005 (ip), vehicle: saline) 103 % of control; (dose: 240.0 mg/kg/injection, schedule: Q01DX005 (ip), vehicle: saline) 103 % of control.

`Cc1ccc(N=c2scc(-c3ccccc3)n2-c2ccccc2)cc1`: the T/C by setting is: (dose: 100.0 mg/kg/injection, schedule: Q04DX002 (ip), vehicle: saline with Tween-80) 102 % of control; under setting [15], 93 % of control; under setting [16], 95 % of control.

`CC(=O)N(CC(=O)Nc1ccc(S(N)(=O)=O)cc1)C(C)C`: the T/C is 100 % of control under setting [17]; 99 % of control under setting [14]; 92 % of control (dose: 200.0 mg/kg/injection, schedule: Q01DX009 (ip), vehicle: Klucel (hydroxypropylcellulose) (HPC)).

In the case of `CNC(C)C1(O)Cc2c(O)c3c(c(O)c2C(OC2CC(N)C(O)C(C)O2)C1)C(=O)c1c(OC)cccc1C3=O` (stereo unspecified), the T/C is 150 % of control (dose: 4.0 mg/kg/injection, schedule: Q01DX009 (ip), vehicle: water); 157 % of control and 161 % of control (dose: 8.0 mg/kg/injection, schedule: Q01DX009 (ip), vehicle: water); 95 % of control (dose: 16.0 mg/kg/injection, schedule: Q01DX009 (ip), vehicle: water).

Take `CC(=O)Nc1c(-c2ccccc2)[nH]c2ccccc12`: the T/C (dose: 100.0 mg/kg/injection, schedule: Q01DX001 (ip), vehicle: saline with Tween-80) is 99 % of control.

For `CNC(=N)c1ccc(NC(=N)c2ccc(NC(=N)c3ccc(NC(=O)Nc4ccc(C(=N)Nc5ccc(C(=N)Nc6ccc(C(=N)NC)cc6)cc5)cc4)cc3)cc2)cc1`, the T/C (dose: 1.78 mg/kg/injection, schedule: Q04DX003 (ip), vehicle: saline with Tween-80) was 108 % of control; the T/C (dose: 2.66 mg/kg/injection, schedule: Q04DX003 (ip), vehicle: saline with Tween-80) was 108 % of control; the T/C (dose: 4.0 mg/kg/injection, schedule: Q04DX003 (ip), vehicle: saline with Tween-80) is 116 % of control.

In the case of `CC12C(=O)C(Br)C1CC2S(=O)(=O)O` (stereo unspecified), the T/C is 97 % of control (dose: 25.0 mg/kg/injection, schedule: Q04DX002 (ip), vehicle: saline); 95 % of control (dose: 50.0 mg/kg/injection, schedule: Q04DX002 (ip), vehicle: saline); 98 % of control (dose: 100.0 mg/kg/injection, schedule: Q04DX002 (ip), vehicle: saline); 96 % of control under setting [15]; 99 % of control under setting [16].

Take `N/C(=C\c1cnc2ccccc2n1)c1ccccc1Cl`: the T/C is 91 % of control (dose: 60.0 mg/kg/injection, schedule: Q01DX005 (ip), vehicle: Klucel (hydroxypropylcellulose) (HPC)) and 89 % of control (dose: 120.0 mg/kg/injection, schedule: Q01DX005 (ip), vehicle: Klucel (hydroxypropylcellulose) (HPC)).

For the compound `COc1cccc2c1C(=O)c1c(O)c3c(c(O)c1C2=O)C[C@@](O)(/C(C)=N\NC(N)=O)C[C@@H]3OC1CC(N)C(O)C(C)O1` (stereo partly specified), the T/C (dose: 1.56 mg/kg/injection, schedule: Q01DX009 (ip), vehicle: saline) is 95 % of control.

Consider `O=C1NN(c2ccccc2)C(=O)/C1=C\c1ccccc1`, for which the T/C by setting is: under setting [7], 91 % of control; (dose: 75.0 mg/kg/injection, schedule: Q01DX009 (ip), vehicle: saline with Tween-80) 100 % of control; under setting [8], 94 % of control; (dose: 150.0 mg/kg/injection, schedule: Q01DX009 (ip), vehicle: saline with Tween-80) 99 % of control; under setting [9], 95 % of control; (dose: 300.0 mg/kg/injection, schedule: Q01DX009 (ip), vehicle: saline with Tween-80) 95 % of control. For the same compound, the T/C (dose: 400.0 mg/kg/injection, schedule: Q01DX009 (ip), vehicle: saline with Tween-80) is 114 % of control and the T/C (dose: 600.0 mg/kg/injection, schedule: Q01DX009 (ip), vehicle: saline with Tween-80) was 104 % of control.

As to `Cc1cc(C)n(-c2ccc(S(=O)(=O)N3CCC(=O)N(Cc4ccccc4)C3=S)cc2)n1`, the T/C is 100 % of control under setting [10], 93 % of control under setting [11] and 93 % of control under setting [12].

Consider `CC#CC#C/C=C1/C=CC2(CC=CO2)O1` (stereo unspecified), for which the T/C is, setting by setting: under setting [13], 107 % of control; (dose: 25.0 mg/kg/injection, schedule: Q01DX009 (ip), vehicle: Klucel (hydroxypropylcellulose) (HPC)) 106 % of control; under setting [17], 111 % of control; under setting [14], 114 % of control.

Values taken from PubChem BioAssay AID330 (DTP/NCI, 2004).
